Where a name gives a salt, the structure may show the parent alone. Read-outs that look alike come from different tables or passages of the source.
Key:
[1] = target: T1, M2 muscarinic receptor subtype (rat heart) (Rattus norvegicus, UniProt P10980); assay: Radioligand binding assay, [3H]-N-methylscopolamine, M2
T1 construct: Submandibular glands and heart were isolated and placed in ice cold homogenising buffer; from tissue; host or cells: rat heart membranes
T1 sequence (P10980 1-466): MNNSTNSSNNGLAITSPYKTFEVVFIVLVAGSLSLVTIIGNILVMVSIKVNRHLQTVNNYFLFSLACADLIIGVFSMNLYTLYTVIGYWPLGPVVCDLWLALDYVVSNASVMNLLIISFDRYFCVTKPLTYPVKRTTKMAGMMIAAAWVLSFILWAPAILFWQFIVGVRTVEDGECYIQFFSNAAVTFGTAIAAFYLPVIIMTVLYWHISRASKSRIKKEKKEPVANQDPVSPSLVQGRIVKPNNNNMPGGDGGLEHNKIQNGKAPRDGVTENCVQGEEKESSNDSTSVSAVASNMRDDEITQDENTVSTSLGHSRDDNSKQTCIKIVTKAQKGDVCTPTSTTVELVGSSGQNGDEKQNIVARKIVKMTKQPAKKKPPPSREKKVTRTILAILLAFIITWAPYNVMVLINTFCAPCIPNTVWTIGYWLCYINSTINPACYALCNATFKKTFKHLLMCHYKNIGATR
Experimental: (§1) The membrane preparation was done with the following modifications: a low spin step of 500 g for 10 minutes at 4° C. was used; the buffer was 20 mM HEPES, 10 mM EDTA, at pH 7.4; the high speed spin was done at 40,000 g and the homogenate was passed through a filter gauge before any spinning.
(§2) Membrane preparation: Submandibular glands and heart were isolated and placed in ice cold homogenising buffer (HEPES 20 mM, 10 mM EDTA, pH 7.4) immediately after sacrifice. The tissues were homogenised in 10 volumes of homogenising buffer and the homogenate was filtered through two layers of wet gauze and filtrate was centrifuged at 500 g for 10 min. The supernatant was subsequently centrifuged at 40,000 g for 20 min. The pellet thus obtained was resuspended in same volume of assay buffer (HEPES 20 mM, EDTA 5 mM, pH 7.4) and were stored at −700C until the time of assay.
(§3) Ligand binding assay: The compounds were dissolved and diluted in DMSO. The membrane homogenates (150-250 μg protein) were incubated in 250 μl of assay buffer (HEPES 20 mM, pH 7.4) at 24-25° C. for 3 h. […] The incubation was terminated by vacuum filtration over GF/B fiber filters (Wallac). The filters were then washed with ice cold 50 mM Tris HCl buffer (pH 7.4). The filter mats were dried and bound radioactivity retained on filters was counted. The IC50 and Kd were estimated by using the non-linear curve fitting program using G Pad Prism software.

[2] = target: T2, M3 muscarinic receptor subtype (rat submandibular gland) (Rattus norvegicus, UniProt P08483); assay: Radioligand binding assay, [3H]-N-methylscopolamine, M3
T2 construct: Submandibular glands and heart were isolated and placed in ice cold homogenising buffer; from tissue; host or cells: rat submandibular gland membranes
Experimental: as §1, §2, §3

[3] = tested on: carbachol evoked changes on bladder pressure, heart rate and salivation; assay: In vivo experiments using anesthetized rabbit; settings: for ID50 Bladder Pressure / ID50 Heart Rate Response / ID50 Salivary Response: carbachol 1.5 μg/kg intrarterial, i.v. test compound; for Fold Selectivity Bladder versus Heart Rate / Fold Selectivity Bladder versus Salivary: from ID50 values
Experimental: In vivo experiments using anesthetized rabbit: The effect of test substances was studied on carbachol evoked changes on bladder pressure, heart rate and salivation. Male rabbits weighing 1.2-3 kg were anaesthetized with urethane (1.5 g/kg), and administered as a slow intravenous infusion through the marginal ear vein. The tracheae were cannulated to maintain airway patency. Blood pressure was recorded from the femoral artery by means of a Statham P10 EZ pressure transducer connected to a Grass model 7D polygraph. The heart rate was monitored by a tachograph triggered by the pulse wave of blood pressure. The other femoral artery was cannulated for the administration of carbachol. Test compound and saline were infused intravenously via the femoral vein.
The bladder was exposed through a midline laparotomy and both the ureters were identified, carefully separated and ligated. The ureters were incised proximally to allow free flow of urine from the kidney to the exterior. Bladder neck was gently held and the urethra was traced and separated from the adjoining tissues. PE canula was introduced into the bladder and ligated. The bladder was drained and subsequently filled with 15 ml of warm saline (37° C.). The other end of the intravesical catheter was connected to the Grass model 7D polygraph through a Statham P10 EZ pressure transducer to monitor the bladder pressure. Care was taken to keep the exposed area moist and warm. A period of 30-60 min was allowed for stabilization of parameters subsequent to surgery. Salivation response was assessed by placing preweighed absorbent cotton gauze in the buccal cavity for 2 minutes after carbachol administration.
At least two stable responses were obtained. These responses were considered as 100%. Subsequently, effect of increasing dose of test compound or vehicle (i.v,12 to 15 min before carbachol challenge) was studied.
The change in bladder pressure, salivation and agonist induced bradycardia were expressed as % change from pretreatment control.

[4] = Receptor Binding Assay M2 pKi, [3H]-N-methylscopolamine, rat heart membranes
[5] = Receptor Binding Assay M3 Pki, [3H]-N-methylscopolamine, rat submandibular gland membranes

T2 sequence (P08483 whole entry): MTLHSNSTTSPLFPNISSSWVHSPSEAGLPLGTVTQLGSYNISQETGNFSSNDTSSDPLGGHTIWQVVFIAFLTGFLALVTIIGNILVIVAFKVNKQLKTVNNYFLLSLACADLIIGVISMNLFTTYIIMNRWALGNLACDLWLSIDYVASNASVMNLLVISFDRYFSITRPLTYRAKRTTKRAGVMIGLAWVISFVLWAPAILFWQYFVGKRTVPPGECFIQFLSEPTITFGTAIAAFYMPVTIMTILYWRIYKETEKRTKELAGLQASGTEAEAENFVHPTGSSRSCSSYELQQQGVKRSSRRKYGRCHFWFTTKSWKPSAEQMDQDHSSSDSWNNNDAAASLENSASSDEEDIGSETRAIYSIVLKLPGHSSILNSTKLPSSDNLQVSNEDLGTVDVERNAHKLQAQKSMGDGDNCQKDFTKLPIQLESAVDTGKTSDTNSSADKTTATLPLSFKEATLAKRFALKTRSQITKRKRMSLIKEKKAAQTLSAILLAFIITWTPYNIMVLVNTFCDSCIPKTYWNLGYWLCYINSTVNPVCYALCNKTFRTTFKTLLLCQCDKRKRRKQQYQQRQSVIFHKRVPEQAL

Row | SMILES | Ki ([1]; Receptor Binding Assay M2 pKi) [nM] | Ki ([2]; Receptor Binding Assay M3 Pki) [nM] | also measured
1 | O=C(NCC1C2CNCC21)C(O)(c1ccccc1)C1CCC(F)C1 (mixture of isomers) [Compound 12, (2R,2S) (1α,5α,6α)-N-[3-azabicyclo[3.1.0]hexyl-6-(aminomethyl)-yl]-2-hydroxy-2-(3-fluorocyclopentyl)-2-phenyl acetamide] | 25.1 | 0.912 | 
2 | O=C(NCC1C2CNCC21)C(O)(c1ccccc1)C1CCC(F)(F)C1 (mixture of isomers) [Compound 13, (2R,2S) (1α,5α,6α)-N-[3-azabicyclo[3.1.0]hexyl-6-(aminomethyl)-yl]-2-hydroxy-2-(3,3-difluorocyclopentyl)-2-phenyl acetamide] | 50.1 | 2 | 
3 | O=C(NCC1C2CNCC21)C(O)(c1ccccc1)C1CCC(F)(F)C1 (mixture of isomers) [Compound 14, (2R,2S) (1α,5α,6α)-N-[3-azabicyclo[3.1.0]hexyl-6-(aminomethyl)-yl]-2-hydroxy-2-(3,3-difluorocyclopentyl)-2-phenyl acetamide tartarate salt] | 72.4 | 1.35 | 
4 | O=C(NC[C@H]1[C@@H]2CNC[C@@H]21)C(O)(c1ccccc1)C1CCCC1 (mixture of isomers) [Compound 1, (2R,2S) (1α,5α,6α)-N-[3-azabicyclo[3.1.0]hexyl-6-(aminomethyl)-yl]-2-hydroxy-2-cyclopentyl-2-phenyl acetamide] | 12 | 0.525 | melting point: 149 to 151 °C
5 | O=C(NC[C@H]1[C@@H]2CNC[C@@H]21)C(O)(c1ccccc1)C1CCCC1 (mixture of isomers) [Compound 2, (2R,2S) (1α,5α,6α)-N-[3-azabicyclo[3.1.0]hexyl-6-(aminomethyl)-yl]-2-hydroxy-2-cyclopentyl-2-phenyl acetamide hydrochloride salt] | 4.37 | 0.316 | ID50 Bladder Pressure [3]: 3.93 ± 1.1 μg/kg, i.v; ID50 Heart Rate Response [3]: 21.13 ± 4.47 μg/kg, i.v; ID50 Salivary Response [3]: 7.67 ± 1.19 μg/kg, i.v; Fold Selectivity Bladder versus Heart Rate [3]: 12.6 ± 5.7; Fold Selectivity Bladder versus Salivary [3]: 3.08 ± 0.94
6 | COC(C(=O)NC[C@H]1[C@@H]2CNC[C@@H]21)(c1ccccc1)C1CCCC1 (mixture of isomers) [Compound 7, (2R,2S) (1α,5α,6α)-N-[3-azabicyclo[3.1.0]hexyl-6-(aminomethyl)-yl]-2-methoxy-2-cyclopentyl-2-phenyl acetamide] |  |  | Ki ([1]; [3H]-N-methylscopolamine, rat heart membranes, read-out: Receptor Binding Assay M2 pKi (converted)): 25.1 nM; Ki ([2]; [3H]-N-methylscopolamine, rat submandibular gland membranes, read-out: Receptor Binding Assay M3 Pki (converted)): 2.45 nM
7 | O=C(NC[C@H]1[C@@H]2CNC[C@@H]21)C(O)(c1ccccc1)C1CCCCCC1 (mixture of isomers) [Compound 8, (2R,2S) (1α,5α,6α)-N-[3-azabicyclo[3.1.0]hexyl-6-(aminomethyl)-yl]-2-hydroxy-2-cycloheptyl-2-phenyl acetamide] | 44.7 | 1.48 | 
8 | O=C(NC[C@H]1[C@@H]2CNC[C@@H]21)C(O)(c1ccccc1)C1CCCCC1 (mixture of isomers) [Compound 17, (2R,2S) (1α,5α,6α)-N-[3-azabicyclo[3.1.0]hexyl-6-(aminomethyl)-yl]-2-hydroxy-2-cyclohexyl-2-phenyl acetamide] | 50.1 | 1.35 | 
9 | CN(C[C@H]1[C@@H]2CNC[C@@H]21)C(=O)C(O)(c1ccccc1)C1CCCC1 (mixture of isomers) [Compound 18, (2R,2S) (1α,5α,6α)-N-[3-azabicyclo[3.1.0]hex-6-ylmethyl)-2-cyclopentyl-2-hydroxy-N-methyl-2-phenyl acetamide] | 2.75 | 0.38 | 
10 | O=C(NC[C@H]1[C@@H]2CNC[C@@H]21)[C@](O)(c1ccccc1)C1CCC(F)(F)C1 (single isomer, unassigned) [Compound 11] | 39.8 | 1.26 | 
11 | O=C(NC[C@H]1[C@@H]2CNC[C@@H]21)[C@](O)(c1ccccc1)C1CCCC1 [Compound 4, (2R)-(1α,5α,6α)-N-[3-azabicyclo[3.1.0]hexyl-6-(aminomethyl)-yl]-2-hydroxy-2-cyclopentyl 2-phenyl acetamide hydrochloride salt] | 3.72 | 0.224 | ID50 Bladder Pressure [3]: 2.14 ± 0.42 μg/kg, i.v; ID50 Heart Rate Response [3]: 5.65 ± 0.86 μg/kg, i.v; ID50 Salivary Response [3]: 4.66 ± 0.56 μg/kg, i.v; Fold Selectivity Bladder versus Heart Rate [3]: 3.43 ± 1.02; Fold Selectivity Bladder versus Salivary [3]: 2.37 ± 0.22
12 | O=C(NC[C@H]1[C@@H]2CNC[C@@H]21)[C@@](O)(c1ccccc1)C1CCCC1 [Compound 5, (2S)-(1α,5α,6α)-N-[3-azabicyclo[3.1.0]hexyl-6-(aminomethyl)-yl]-2-hydroxy-2-cyclopentyl 2-phenyl acetamide] | 158 | 31.6 | 
13 | O=C(NC[C@H]1[C@@H]2CNC[C@@H]21)[C@@](O)(c1ccccc1)C1CCCC1 [Compound 6, (2S)-(1α,5α,6α)-N-[3-azabicyclo[3.1.0]hexyl-6-(aminomethyl)-yl]-2-hydroxy-2-cyclopentyl 2-phenyl acetamide hydrochloride salt] | 77.6 | 13.2 | 
14 | O=C(NCC1C2CNCC21)C(O)(c1ccccc1)C1CCC1 [Compound 9, (2R,2S) (1α,5α,6α)-N-[3-azabicyclo[3.1.0]hexyl-6-(aminomethyl)-yl]-2-hydroxy-2-cyclobutyl-2-phenyl acetamide] | 9.55 | 1.26 | 
15 | O=C(NCC1C2CNCC21)C(O)(c1ccccc1)C1CCC1 [Compound 10, (2R,2S) (1α,5α,6α)-N-[3-azabicyclo[3.1.0]hexyl-6-(aminomethyl)-yl]-2-hydroxy-2-cyclobutyl-2-phenyl acetamide tartarate salt] | 6.31 | 0.316 | 
16 | O=C(OC[C@H]1[C@@H]2CNC[C@@H]21)C(O)(c1ccccc1)c1ccccc1 [Compound 15, (2R,2S) (1α,5α,6α)-N-[3-azabicyclo[3.1.0]hexyl-6-(aminomethyl)-yl]-2-hydroxy-2,2-diphenyl acetate] |  |  | Ki [1, 4]: 0.219 nM; Ki [2, 5]: 0.0661 nM
17 | O=C(NC[C@H]1[C@@H]2CNC[C@@H]21)C(O)(c1ccccc1)c1ccccc1 [Compound 16, (2R,2S) (1α,5α,6α)-N-[3-azabicyclo[3.1.0]hexyl-6-(aminomethyl)-yl]-2-hydroxy-2,2-diphenyl acetamide] |  |  | Ki [1, 4]: 11.2 nM; Ki [2, 5]: 0.389 nM
18 | Cc1ccc(O)c([C@H](CCN(C(C)C)C(C)C)c2ccccc2)c1 [Tolterodine, reference compound] |  |  | ID50 Bladder Pressure [3]: 25.84 ± 4.24 μg/kg, i.v; ID50 Heart Rate Response [3]: 32.54 ± 5.77 μg/kg, i.v; ID50 Salivary Response [3]: 32.5 ± 10.02 μg/kg, i.v
